Test results as given in ChEMBL document CHEMBL5370544, “Design, synthesis, and biological evaluation of 1-styrenyl isoquinoline derivatives for anti-hepatocellular carcinoma activity and effect on mitochondria” (Eur J Med Chem, 2023).
The source made the active and inactive calls. The calls are words filed in the database; no cut-off is given here.

How the values were obtained:
Huh-7 [1] = assay: Induction of apoptosis in human Huh-7 cells assessed as inhibition of Bcl-2 expression incubated for 48 hrs by Western blotting analysis; assay type: functional, cell-based; settings: dose 0.9-8.1 µM
SK-HEP1 [2] = assay: Induction of apoptosis in human SK-HEP1 cells assessed as cell shrinkage at 1.5 to 13.5 uM incubated for 24 hrs by giemsa staining based micrscopic analysis; assay type: functional; settings: dose 1.5-13.5 µM
[3] = Toxicity in BALB/c mouse xenografted with human Huh-7 cells assessed as change in body weight at 15 to 30 mg/kg, ip qd measured after 14 days; assay type: organism-based; settings: in vivo, 336 h, dose 15-30 mg/kg, time 14 day
SK-HEP1 [4] = assay: Induction of apoptosis in human SK-HEP1 cells assessed as increase in cytochrome-C expression at 1.5 to 13.5 uM incubated for 48 hrs by Western blotting analysis; assay type: functional, cell-based; settings: dose 1.5-13.5 µM
SK-HEP1 [5] = assay: Inhibition of cell migration in human SK-HEP1 cells at 1.25 to 5 uM incubated for 24 hrs by crystal violet staining based transwell migration assay; assay type: functional; settings: dose 1.25-5 µM
Huh-7 [6] = assay: Induction of apoptosis in human Huh-7 cells assessed as inhibition of caspase-9 expression incubated for 48 hrs by Western blotting analysis; assay type: functional, cell-based; settings: dose 0.9-8.1 µM
[7] = Acute toxicity in BALB/c mouse assessed as change in body weight at 650 mg/kg, ip measured at day 2; assay type: organism-based; settings: in vivo, 48 h, time 2 day
Huh-7 [8] = assay: Induction of ROS production in human Huh-7 cells assessed as increase in intracellular ROS level at 0.9 to 8.1 uM incubated for 24 hrs by DCFH-DA staining based fluorescence assay; assay type: functional, cell-based; settings: dose 0.9-8.1 µM
Huh-7 [9] = assay: Antitumor activity against human Huh-7 cells xenografted in ip dosed BALB/c mouse assessed as reduction in tumor volume measured after 14 days; assay type: functional, organism-based; settings: dose 15-30 mg/kg, time 14.0 day
SK-HEP1 [10] = assay: Induction of apoptosis in human SK-HEP1 cells assessed as inhibition of caspase-3 expression incubated for 48 hrs by Western blotting analysis; assay type: functional, cell-based; settings: dose 1.5-13.5 µM
SK-HEP1 [11] = assay: Antiproliferative activity against human SK-HEP1 cells assessed as reduction in ratio of EdU-positive cells measured after 24 hrs by EdU incorporation assay; assay type: functional, cell-based; settings: dose 1.25-5 µM
Huh-7 [12] = assay: Induction of apoptosis in human Huh-7 cells assessed as increase in proportion of late apoptosis at 0.9 to 8.1 uM incubated for 24 hrs by Annexin V-AbFluor 488/propidium iodide staining based flow cytometry analysis; assay type: functional, cell-based; settings: dose 0.9-8.1 µM
SK-HEP1 [13] = assay: Induction of cell cycle arrest in human SK-HEP1 cells assessed as decrease in CDK1 expression incubated for 48 hrs by Western blotting analysis; assay type: functional, cell-based; settings: dose 1.5-13.5 µM
SK-HEP1 [14] = assay: Induction of apoptosis in human SK-HEP1 cells assessed as cell membrane blebbing at 1.5 to 13.5 uM incubated for 24 hrs by giemsa staining based micrscopic analysis; assay type: functional; settings: dose 1.5-13.5 µM
SK-HEP1 [15] = assay: Induction of apoptosis in human SK-HEP1 cells assessed as inhibition of caspase-9 expression incubated for 48 hrs by Western blotting analysis; assay type: functional, cell-based; settings: dose 1.5-13.5 µM
Huh-7 [16] = assay: Induction of apoptosis in human Huh-7 cells assessed as cell shrinkage at 0.9 to 8.1 uM incubated for 24 hrs by giemsa staining based micrscopic analysis; assay type: functional; settings: dose 0.9-8.1 µM
Huh-7 [17] = assay: Induction of apoptosis in human Huh-7 cells assessed as increase in cytochrome-C expression at 0.9 to 8.1 uM incubated for 48 hrs by Western blotting analysis; assay type: functional, cell-based; settings: dose 0.9-8.1 µM
SK-HEP1 [18] = assay: Antiproliferative activity against human SK-HEP1 cells assessed as inhibition of cell growth upto 2 uM by MTT assay; assay type: functional, cell-based; settings: time 72.0 hrs, TDE = time-dependent effect
Huh-7 [19] = assay: Antitumor activity against human Huh-7 cells xenografted in BALB/c mouse assessed as reduction in tumor growth at 15 to 30 mg/kg, ip qd measured after 5 days; assay type: functional, organism-based; settings: dose 15-30 mg/kg, time 5.0 day
Huh-7 [20] = assay: Induction of cell cycle arrest in human Huh-7 cells assessed as decrease in cyclin A expression incubated for 48 hrs by Western blotting analysis; assay type: functional, cell-based; settings: dose 0.9-8.1 µM
Huh-7 [21] = assay: Inhibition of cell migration in human Huh-7 cells incubated for 24 hrs by scratch wound healing assay; assay type: functional, cell-based; settings: dose 0.55-2.2 µM
Huh-7 [22] = assay: Antiproliferative activity against human Huh-7 cells assessed as inhibition of cell growth measured after 72 hrs by MTT assay; assay type: functional, cell-based
Huh-7 [23] = assay: Antiinvasive activity in human Huh-7 cells assessed as reduction in number of invasive cells at 0.55 to 2.2 uM incubated for 24 hrs by transwell invasion assay; assay type: functional, cell-based; settings: dose 0.55-2.2 µM
Huh-7 [24] = assay: Antimigratory activity against human Huh-7 cells assessed as down-regulation of N-cadherin expression at 0.55 to 2.2 uM incubated 24 hrs by Western blotting analysis; assay type: functional, cell-based; settings: dose 0.55-2.2 µM
Huh-7 [25] = assay: Antitumor activity against human Huh-7 cells xenografted in BALB/c mouse assessed as tumor growth inhibition at 30 mg/kg, ip qd measured after 14 days; assay type: functional; settings: Huh-7, 336 h, time 14 day, read-out: TGI
SK-HEP1 [26] = assay: Induction of apoptosis in human SK-HEP1 cells assessed as inhibition of Bcl-2 expression incubated for 48 hrs by Western blotting analysis; assay type: functional, cell-based; settings: dose 1.5-13.5 µM
Huh-7 [27] = assay: Antiproliferative activity against human Huh-7 cells assessed as inhibition of cell growth upto 2 uM by MTT assay; assay type: functional, cell-based; settings: time 72.0 hrs, TDE = time-dependent effect
HepG2 = assay: Antiproliferative activity against human HepG2 cells assessed as inhibition of cell growth measured after 72 hrs by MTT assay; assay type: functional, cell-based; settings: HepG2, 72 h
SK-HEP1 [28] = assay: Induction of apoptosis in human SK-HEP1 cells assessed as chromatin condensation at 1.5 to 13.5 uM incubated for 24 hrs by giemsa staining based micrscopic analysis; assay type: functional, cell-based; settings: dose 1.5-13.5 µM
[29] = Acute toxicity in BALB/c mouse assessed as mouse survival at 650 mg/kg, ip measured after 14 days; assay type: organism-based; settings: in vivo, 336 h, time 14 day
SK-HEP1 [30] = assay: Induction of apoptosis in human SK-HEP1 cells assessed as increase in Bax expression at 1.5 to 13.5 uM incubated for 48 hrs by Western blotting analysis; assay type: functional, cell-based; settings: dose 1.5-13.5 µM
SK-HEP1 [31] = assay: Induction of mitochondrial membrane potential depolarization in human SK-HEP1 cells incubated for 24 hrs by TMRE staining based flow cytometry analysis; assay type: functional, cell-based; settings: dose 1.5-13.5 µM
SK-HEP1 [32] = assay: Antiinvasive activity in human SK-HEP1 cells assessed as reduction in number of invasive cells at 1.25 to 5 uM incubated for 24 hrs by transwell invasion assay; assay type: functional, cell-based; settings: dose 1.25-5 µM
SK-HEP1 [33] = assay: Induction of apoptosis in human SK-HEP1 cells assessed as genomic DNA fragmentation at 1.5 to 13.5 uM incubated for 24 hrs by giemsa staining based micrscopic analysis; assay type: functional, cell-based; settings: dose 1.5-13.5 µM
Huh-7 [34] = assay: Induction of apoptosis in human Huh-7 cells assessed as cell membrane blebbing at 0.9 to 8.1 uM incubated for 24 hrs by giemsa staining based micrscopic analysis; assay type: functional; settings: dose 0.9-8.1 µM
Huh-7 [35] = assay: Antiproliferative activity against human Huh-7 cells assessed as reduction in ratio of EdU-positive cells measured after 24 hrs by EdU incorporation assay; assay type: functional, cell-based; settings: dose 0.55-2.2 µM
Huh-7 [36] = assay: Inhibition of cell migration in human Huh-7 cells at 0.55 to 2.2 uM incubated for 24 hrs by crystal violet staining based transwell migration assay; assay type: functional; settings: dose 0.55-2.2 µM
Huh-7 [37] = assay: Inhibition of PI3K signalling pathway in human Huh-7 cells assessed as inhibition of PI3K phosphorylation at 0.9 to 8.1 uM measured after 48 hrs by Western blotting analysis; assay type: cell-based; settings: dose 0.9-8.1 µM

SMILES: CC(=O)Oc1ccccc1/C=C/c1nccc2ccccc12
- Activity (Huh-7 [1]): Dose-Dependent Effect
- Activity (SK-HEP1 [2]): Active
- Activity [3]: Non-Toxic
- Activity (SK-HEP1 [4]): Active
- inhibition (SK-HEP1 [5]): Active
- Activity (Huh-7 [6]): Dose-Dependent Effect
- Activity [7]: Toxic
- Activity (Huh-7 [8]): Active
- Activity (Huh-7 [9]): Dose-Dependent Effect
- Activity (SK-HEP1 [10]): Dose-Dependent Effect
- Activity (SK-HEP1 [11]): Dose-Dependent Effect
- Activity (Huh-7 [12]): Active
- Activity (SK-HEP1 [13]): Dose-Dependent Effect
- Activity (SK-HEP1 [14]): Active
- Activity (SK-HEP1 [15]): Dose-Dependent Effect
- Activity (Huh-7 [16]): Active
- Activity (Huh-7 [17]): Active
- Activity (SK-HEP1 [18]): Tde
- Activity (Huh-7 [19]): Active
- Activity (Huh-7 [20]): Dose-Dependent Effect
- inhibition (Huh-7 [21]): Dose-Dependent Effect
- Activity (Huh-7 [22]): Dose-Dependent Effect
- IC50 (Huh-7 [22]; Huh-7, 72 h): 2.52 µM
- Activity (Huh-7 [23]): Active
- Activity (Huh-7 [24]): Active
- inhibition in vivo at 30 mg/kg (Huh-7 [25]): 41.4%
- Activity (SK-HEP1 [26]): Dose-Dependent Effect
- Activity (Huh-7 [27]): Tde
- IC50 (HepG2): 9.76 µM
- Activity (SK-HEP1 [28]): Active
- Activity [29]: Non-Toxic
- Activity (SK-HEP1 [30]): Active
- Activity (SK-HEP1 [31]): Dose-Dependent Effect
- Activity (SK-HEP1 [32]): Active
- Activity (SK-HEP1 [33]): Active
- Activity (Huh-7 [34]): Active
- Activity (Huh-7 [35]): Dose-Dependent Effect
- inhibition (Huh-7 [36]): Active
- inhibition (Huh-7 [37]): Active
